# Measured values: US20200375929A1, “METHODS AND COMPOSITIONS FOR THE TREATMENT OF DISEASES ASSOCIATED WITH CANCER, INFLAMMATION, OR IMMUNE RESPONSE” (Washington University, priority 2017, published 2020)
# “Also recorded” adds a separate entry of the source.
# Assays:
# Regnase-1 = Regnase-1 protein levels in BMDMs (western blot); assay type: cell-based, mouse; settings: unstimulated macrophages, DI
# Procedure: BMDM were prepared from 6- to 12-week-old mice as described 1 and cultured in RMPI-1640 medium supplemented with 10% fetal bovine serum (FBS), 2 mM L-glutamine, and 100 U/mL penicillin-streptomycin and mouse recombinant M-CSF ([…], Peprotech). For experiments, cells were seeded at concentration 10^6 cells/mL in tissue culture plates of various formats. […]
# (§1) Cells were lysed in RIPA Lysis Buffer System (Santa Cruz) and heat-denatured at 95° C. for 5 min in reducing sample buffer (BioRad). […] Non-specific binding was blocked with 5% skim milk (or 5% BSA when phospho-proteins were analyzed), and membranes were probed with primary antibodies specific to Nrf2 (#12721), HO-1 (#70081), IκBζ (mouse specific, #93726), IκBζ(#9244), ATF3 (#D2Y5W), IRAK1 (#4504; sensitivity of IRAK1 detection diminishes upon IRAK1 K63 ubiquitination), phospho-IKK (Ser176/180, #2697), p62/SQSTM1 (#5114), phospho-eIF2α (Ser51, #9721), eIF2α (#5324) from Cell Signaling; GAPDH (sc-25778), IκBα (sc-1643), ATF3 (sc-188), SDHA (sc-166909) from Santa Cruz; NQO1 (ab28947) from Abeam, followed by incubation with anti-rabbit-HRP (1:10,000; sc-2030) or anti-mouse-HRP (1:10,000; sc-2031) from Santa Cruz and Clarity western ECL substrate (Bio-Rad). […]
# EAE = EAE model of multiple sclerosis; assay type: in vivo, mouse; settings: daily DI administration
# [1] = tested on: IκBζ target genes (Defb4, S100a7a, Lcn2, S100a9); assay: IκBζ target gene expression in IL-17A-stimulated mouse keratinocytes (qPCR); assay type: cell-based; settings: DI 12 h, IL-17A 4 h
# Procedure: RNA from cultured cells was isolated using a Total RNA I kit (OMEGA). RNA from mouse ear skin was extracted using RNAeasy mini kit (Qiagen) after tissue disruption with sterile zirconium beads on a MagNA Lyser (Roche). Isolated RNA was reverse transcribed using AffinityScript Multi-Temp reverse transcriptase (Agilent Technologies) according to the manufacturer's protocol. Reactions were performed in 96-well plates using a SYBR Green PCR Master mix (Thermo Fisher Scientific) using a LightCycler® 96 or LightCycler® 480 (Roche Diagnostics). All assays were performed at least in duplicates, and reaction mixtures in 20 μL volumes (96-plate) or 10 μL volumes (384-plate) were processed under the following cycling conditions: initial 10 min denaturation at 95° C., followed by 40 cycles at 95° C. for 10 s, 60° C. for 1 min. Threshold cycle (CT) values for each sample were determined by automated threshold analysis. Expression levels of all mRNAs were normalized to reference gene Actb in BMDMs or to Rpl19 in mouse keratinocytes and tissue samples; to ACTB in human blood monocytes or RPLP0 in human keratinocytes. The relative increase in the expression level of a gene was normalized to the level of expression in unstimulated control cells in each experiment. IκBζ-dependent genes selected for analysis in macrophages were previously published. […]
# IκBζ [2] = assay: LPS-induced Ikb-ζ protein induction in BMDMs (western blot); assay type: cell-based, mouse
# Procedure: (§2) BMDM were prepared from 6- to 12-week-old mice as described 1 and cultured in RMPI-1640 medium supplemented with 10% fetal bovine serum (FBS), 2 mM L-glutamine, and 100 U/mL penicillin-streptomycin and mouse recombinant M-CSF ([…], Peprotech). For experiments, cells were seeded at concentration 10^6 cells/mL in tissue culture plates of various formats. The cells were treated with DI (250 μM (unless stated otherwise), cat #592498, Sigma), DMF (50 μM (unless stated otherwise), cat #242926, Sigma), 3-(ethoxycarbonyl)but-3-enoic acid (3MI, 5 μM, Aris Pharmaceuticals Inc.), 4-ethoxy-2-methylene-4-oxobutanoic acid (MI, Aris Pharmaceuticals Inc.) for 12 h and activated with lipopolysaccharide (LPS; 100 ng/mL; E. coli 0111:B4, Sigma) for 1 h or as indicated. In some experiments cells were stimulated with combination of LPS (20 ng/mL) and IFN-γ (50 ng/mL; Peprotech). In some experiments cells were treated with α-tocopherol (AT, 10 μM; Sigma), MitoTEMPO (MT, 500 μM; Sigma), N-acetylcysteine (NAC, 1 mM, Sigma), ethylester of GSH (EtGSH; 1 mM, Santa Cruz) or buthionene sulfoximine (BSO, 500 μM, Sigma) alone or in combination with DI for 12 h. In some experiments BMDMs were treated with DI for 12 h and bafilomycin A (BafA, 100 nM, Sigma) or MG132 (10 μM, Selleckchem) were added 30 min before subsequent LPS stimulation.
# Cells were lysed in RIPA Lysis Buffer System (Santa Cruz) and heat-denatured at 95° C. for 5 min in reducing sample buffer (BioRad). Proteins were separated on 4%-20% polyacrylamide gradient gels (BioRad) and transferred onto 0.45 μm pore size PVDF membranes (Millipore). Non-specific binding was blocked with 5% skim milk (or 5% BSA when phospho-proteins were analyzed), and membranes were probed with primary antibodies specific to Nrf2 (#12721), HO-1 (#70081), IκBζ (mouse specific, #93726), IκBζ(#9244), ATF3 (#D2Y5W), IRAK1 (#4504; sensitivity of IRAK1 detection diminishes upon IRAK1 K63 ubiquitination), phospho-IKK (Ser176/180, #2697), p62/SQSTM1 (#5114), phospho-eIF2α (Ser51, #9721), eIF2α (#5324) from Cell Signaling; GAPDH (sc-25778), IκBα (sc-1643), ATF3 (sc-188), SDHA (sc-166909) from Santa Cruz; NQO1 (ab28947) from Abeam, followed by incubation with anti-rabbit-HRP (1:10,000; sc-2030) or anti-mouse-HRP (1:10,000; sc-2031) from Santa Cruz and Clarity western ECL substrate (Bio-Rad). Membranes were exposed to X-Ray films (Research Products International Corp.) and developed using SRX-101A film processor (Konica Minolta). GAPDH run on the same blot was used as loading control. After scanning of original films image brightness of some blots was adjusted and bands were cropped using ImageJ. Densitometry was performed using ImageJ.
# IκBζ [3] = assay: IL-17A-induced IκBζ in primary human keratinocytes (western blot); assay type: cell-based; settings: DI 12 h, IL-17A 100 ng/ml
# Procedure: (§3) Cells were lysed in RIPA Lysis Buffer System (Santa Cruz) and heat-denatured at 95° C. for 5 min in reducing sample buffer (BioRad). Proteins were separated on 4%-20% polyacrylamide gradient gels (BioRad) and transferred onto 0.45 μm pore size PVDF membranes (Millipore). Non-specific binding was blocked with 5% skim milk (or 5% BSA when phospho-proteins were analyzed), and membranes were probed with primary antibodies specific to Nrf2 (#12721), HO-1 (#70081), IκBζ (mouse specific, #93726), IκBζ(#9244), ATF3 (#D2Y5W), IRAK1 (#4504; sensitivity of IRAK1 detection diminishes upon IRAK1 K63 ubiquitination), phospho-IKK (Ser176/180, #2697), p62/SQSTM1 (#5114), phospho-eIF2α (Ser51, #9721), eIF2α (#5324) from Cell Signaling; GAPDH (sc-25778), IκBα (sc-1643), ATF3 (sc-188), SDHA (sc-166909) from Santa Cruz; NQO1 (ab28947) from Abeam, followed by incubation with anti-rabbit-HRP (1:10,000; sc-2030) or anti-mouse-HRP (1:10,000; sc-2031) from Santa Cruz and Clarity western ECL substrate (Bio-Rad). Membranes were exposed to X-Ray films (Research Products International Corp.) and developed using SRX-101A film processor (Konica Minolta). GAPDH run on the same blot was used as loading control. After scanning of original films image brightness of some blots was adjusted and bands were cropped using ImageJ. Densitometry was performed using ImageJ. […]
# IL6, IL12, IL1b, TNFα = assay: Cytokine production in LPS-stimulated BMDMs (ELISA); assay type: cell-based, mouse
# Procedure: as §2
# Cytokines in cell supernatants were analyzed using DuoSet® ELISA kits according to manufacturer protocol (R&D Systems). The supernatants from BMDMs were diluted 1:4, from human blood monocytes 1:3.
# IκBζ [4] = assay: IL-17A-induced IκBζ in primary mouse keratinocytes (western blot); assay type: cell-based; settings: DI 12 h, IL-17A 100 ng/ml
# Procedure: as §3
# Nrf2 = Nrf2 response in BMDMs (western blot, target genes); assay type: cell-based, mouse; settings: 12 h treatment
# Procedure: as §2, with “In some experiments BMDMs were treated with DI for 12 h and bafilomycin A (BafA, 100 nM, Sigma) or MG132 (10 μM, Selleckchem) were added 30 min before subsequent LPS stimulation.” left out
# as §1
smiles,measurement,setting,value
"C=C(CC(=O)OC)C(=O)OC [DI, dimethyl itaconate]",Regnase-1 protein,Regnase-1,up-regulated Regnase-1
same,clinical development of EAE,EAE,ameliorated; also recorded: prevented clinical development of EAE
same,expression of IκBζ target genes,[1],downregulated
same,IκBζ protein levels upon DI treatment in Atf3−/− cells,"IκBζ [2]; Atf3−/− BMDMs, DI, LPS",restored IκBζ protein levels
same,"LPS-induced Ikb-ζ induction, protein level","IκBζ [2]; BMDMs treated with compound 12 h, then LPS 100 ng/ml",almost complete inhibition; also recorded: completely abolished; also recorded: inhibited IκBζ induction
same,effect on IκBζ/IL-6 in combination with BSO,"IκBζ [2]; BMDMs, compound plus BSO 500 μM, LPS",enhanced the inhibitory effect
same,DI inhibition of Ikb-ζ induction in Nrf2-deficient cells,"IκBζ [2]; Nrf2 KO BMDMs, DI 250 μM 12 h, LPS",did not affect inhibition of Ikb-ζ induction; also recorded: did not alleviate
same,IκBζ inhibition by DI in p62/SQSTM1- or HO-1-lacking macrophages,IκBζ [2]; macrophages genetically lacking p62/SQSTM1 or HO-1,did not rescue IκBζ inhibition by DI
same,IL-17-induced IκBζ induction,IκBζ [3],inhibited
same,IL-6 production in DI-treated Atf3−/− cells compared to WT,"IL6, IL12, IL1b, TNFα; Atf3−/− BMDMs, DI, LPS 24 h",significantly increased IL-6 production
same,LPS-induced cytokine production,"IL6, IL12, IL1b, TNFα; BMDMs pretreated 12 h, then LPS","down-regulates production of IL6, IL12, and IL1b, but not TNFα"
same,DI-mediated IL-6 inhibition in Nrf2-deficient BMDMs,"IL6, IL12, IL1b, TNFα; Nrf2-deficient BMDMs, DI, LPS 4 h",did not alleviate
same,IL-17-induced IκBζ induction,IκBζ [4],inhibited
same,"Nrf2 response (Nrf2 protein, target genes)",Nrf2,triggered strong Nrf2 response; also recorded: increased
